US20150125526A1 (Raptor Pharmaceuticals Inc., priority 2013, published 2015)

Columns and labels:
[1] = tested on: mice with the gene mutation for Huntington's disease; conditions: mouse, in vivo; cited from earlier work
Sod2 null mice [2] = conditions: untreated Sod2 null mice die after approximately 1 week; cited from earlier work
Sod2 null mice [3] = assay: Administration of cysteamine bitartrate to Sod2 null mice: survival, weight gain, toxicity; assay type: in vivo; conditions: cysteamine bitartrate 30 mg/kg, single dose
Protocol: Sod2 null mice provide a method for determining the efficacy in vivo of compounds having antioxidant properties, particularly those with mitochondrial efficacy. Without antioxidant efficacy, Sod2 null mice die after approximately 1 week, with antioxidant intervention, the lifespan can be extended 3-fold using powerful catalytic synthetic antioxidants such as EUK-189 (Melov et al., J Neurosci. 21(21):8348-53, 2001).
A single dose of the test agent is administered to the animals, either intraperitoneally or subcutaneously.

[4] = tested on: intracellular cystine (circulating white blood cells); conditions: cited from earlier work
FRDA fibroblasts = conditions: preincubation prior to exposure to BSO; cited from earlier work

For NCCSSCCN [Cystamine], the “life (survival)” value [1] is given as “prolong life” and the tremors [1] is given as “alleviate tremors”.

In the case of CC(=O)O.CCOc1cccc(C=NCCN=Cc2cccc(OCC)c2[O-])c1[O-].[Mn] [EUK-189], the extension of lifespan (Sod2 null mice [2]) is given as 3 fold.

For NCCS [cysteamine, Cysteamine (HS—CH2—CH2—NH2)], the “weight gain compared to untreated animals” value (Sod2 null mice [3]; initial experiment) is given as “normal”, the survival analysis (Sod2 null mice [3]; preliminary experiment) is given as “inconclusive” and the “time to observed decrease in leukocyte cystine” value ([4]; delivery of cysteamine into the small intestine (WO 2007/089670)) is given as “within an hour”. The “depletion of intracellular cystine” value ([4]; taken regularly, measured in circulating white blood cells) was “up to 90%”.

In the case of COC1=C(OC)C(=O)C(CCCCCCCCCCO)=C(C)C1=O [idebenone], the “protection from cell death” value (FRDA fibroblasts) is given as “protected cells from cell death”.

In the case of vitamin E, the “protection from cell death” value (FRDA fibroblasts) is given as “protected cells from cell death”.
